# In patent US20110250254A1, “ANTIMICROBIAL COMPOSITIONS AND USES” (priority 2008, published 2011):
# Read-outs that look alike come from different tables or passages of the source.
# Key:
# Type in all cases: cell-based
# S. epidermidis [1] = assay: Shaking biofilm model (200 rpm), safranine staining; settings: Staphylococcus epidermidis, read-out: Shaking biofilm model % Remaining
# Experimental: (§1) According to the static biofilm model, a given thiophenone 200 μmol/L was dissolved in 500 μl absolute ethanol and applied to wells of a standard 24 well microtiter plate. The ethanol was evaporated from the wells in a laminar air sterile work bench at room temperature so as to leave a coating of the thiophenone in the well. A sample of bacteria was then added to the well and incubated for a given period of time. After incubation, the percentage of bacteria remaining was assessed by safranine staining of the biofilm. Bound safranine was released by acetic acid and optical density was measured in Synergy HT Multi-Detection Microplate Reader and compared to a control.
# According to the shaking biofilm model, the microtiter plates were shaken (200 rpm) in a Minitron Incubator Shaker during biofilm formation.
# V. harveyi [2] = assay: Biofilm formation on peggs, Calgary method; settings: for Effect on V. harveyi biofilm: in words
# Experimental: (§2) Biofilm formation was measured in static cultures in wells of microtiter plates for S. epidermidis, or on “peggs” according to the Calgary method (The Calgary biofilm devices: New technology for rapid determination of antibiotic susceptibilities of bacterial biofilms. Ceri et al. J Clin Microbiol 1999:37:1771-1776) for V. harveyi. In both cases the safranin staining method was applied and optical density was measured at 530 nm for quantification of biofilm mass.
# V. harveyi [3] = assay: Planktonic growth in Low Binding Plates, OD 600 nm; settings: for Effect on V. harveyi planktonic growth: in words; for V. harveyi planktonic bacteria reduction: 100 μM
# Experimental: (§3) Planktonic growth was determined in “Low Binding Plates” in which the bacteria form minimal amounts of biofilm The quantity is determined by optical density measurements at 600 nm.
# S. epidermidis [4] = assay: Static biofilm model, safranine staining; settings: 6 h incubation, thiophenone 200 μmol/L coating
# Experimental: as §1
# S. epidermidis [5] = assay: Planktonic growth in Low Binding Plates, OD 600 nm
# Experimental: as §3
# S. epidermidis [6] = assay: Biofilm formation in static cultures in wells of microtiter plates
# Experimental: as §2
# S. epidermidis [7] = assay: Static biofilm model on coated glass vials; settings: incubation time 5 h, coating on glass vial
# Experimental: The materials of Example 3 were tested in a static biofilm model as follows.
# Triplicate samples of a coating composition were applied to a glass vial in accordance with Table 2 set out below where each vial is given a number. Vials 1 to 12 are each loaded with 13 mg of the indicated material, followed by the addition of 1.0 mL dichloromethane. The dichloromethane was slowly evaporated under atmospheric pressure to leave a coating on the internal walls of the receptacles. Vials 13 to 18 were each loaded by adding 10 mg of the indicated material pre-dissolved in 10 mL dichloromethane. These vials were heated in an oven at 125° C. for 24 hours. To remove any residues of the dichloromethane solvent, all vials were dried at high vacuum (0.5 mmHg) for 2 hours at room temperature.
# The biofilm was assessed as described in Example 2.
# It is possible in the example of the copolymer of C and D that bacteria are killed in addition to the inhibition of biofilm formation. Similar results were obtained in a static biofilm model where S. epidermis bacteria were incubated over a time period of 5 hours.
# marine bacteria [8] = assay: Coated stainless steel, MPN viable counts of desorbed bacteria; settings: 14 days at 20° C., median values vs no coating
# Experimental: (§4) Biological testing of coated stainless steel substrates were performed in a static cultures of marine bacteria. The biofilm prevention efficiencies of the coatings were recorded as a) total enumeration of bacteria attached on the steel surfaces and b) most-probable number (MPN) viability testing of attached bacteria. The nature of the thiophenes (expecting to inhibit biofilm generation without being toxic to the bacteria) should account for inhibition of both total counts and viability counts when thiophene-coated surfaces were compared to non-treated controls.
# (§5) Three samples of stainless steel substrates were prepared as described above, each of these in triplicate. […]
# (§6) At the end of the experimental period (14 days) the steel surfaces were removed from the media and carefully washed in sterile and particle-free (filtered through […] sterile filters) seawater. […] Desorbed concentrations of bacteria were recorded by epifluorescence microscopy and by MPN-counts in MB medium.
# (§7) For epifluorescence microscopy 10 ml desorbed samples were stained with 2 μg 3′5-diamino phenylindol (DAPI) and incubated for 5-10 minutes. The stained samples were filtered through 0.2 μm black polycarbonate filters and analysed in a fluorescence microscope at 1250× magnification. […] The plates were incubated at 20° C. for 5 days and positive growth recorded as turbidity in the wells. […]
# marine bacteria [9] = assay: Coated stainless steel, total counts of desorbed bacteria by epifluorescence microscopy; settings: 14 days at 20° C., median values vs no coating
# Experimental: as §4, §5, §6, §7
# [10] = S. epidermidis, 20 h incubation
smiles,measurement,setting,value
"O=C1C=C/C(=C(\Br)c2ccccc2)S1 [Thio111, (E)-5-(bromo(phenyl)methylene) thiophen-2-(5H)-one]",activity at 200 µM,"S. epidermidis [1]; S. epidermidis, 6 h incubation",63%
same,activity at 200 µM,S. epidermidis [1]; [10],50%
CCN(/C=C1/C=CC(=O)S1)CC,Effect on V. harveyi biofilm,V. harveyi [2],No effect
same,Effect on V. harveyi planktonic growth,V. harveyi [3],No effect
"O=C1SC(=C(Br)Br)C=C1Br [Thio108, 3-bromo-5-(dibromomethylene)thiophen-2(5H)-one]",activity at 200 µM,"S. epidermidis [1]; S. epidermidis, 6 h incubation",1%
same,activity at 200 µM,S. epidermidis [1]; [10],9%
O=C(O)CCC(=O)OCC1=C/C(=C/Br)SC1=O,V. harveyi biofilm reduction,V. harveyi [2]; 5 μM,17%
same,V. harveyi biofilm reduction,V. harveyi [2]; 50 μM,70%
same,V. harveyi biofilm reduction,V. harveyi [2]; 100 μM,85%
same,V. harveyi planktonic bacteria reduction,V. harveyi [3],18%
"O=C1S/C(=C\Br)C=C1Br [Thio105, (Z)-3-bromo-5-(bromomethylene)thiophen-2(5H)-one]",activity at 200 µM,"S. epidermidis [1]; S. epidermidis, 6 h incubation",20%
same,activity at 200 µM,S. epidermidis [1]; [10],18%
"O=Cc1ccc(/C=C2/C=CC(=O)S2)s1 [Thio303, (Z)-5-((5-oxothiophen-2(5H)-ylidene)methyl)thiophene-2-carbaldehyde]",activity at 200 µM,"S. epidermidis [1]; S. epidermidis, 6 h incubation",95%
same,activity at 200 µM,S. epidermidis [1]; [10],91%
"O=C1C=C/C(=C\Br)S1 [Thio102, (E)-5-(bromomethylene) thiophen-2(5H)-one]",Static biofilm model % Remaining,S. epidermidis [4],95%
same,activity at 200 µM,"S. epidermidis [1]; S. epidermidis, 6 h incubation",91%
same,activity at 200 µM,S. epidermidis [1]; [10],103%
"O=C1S/C(=C\c2ccccc2)C=C1Br [Thio110, (Z)-5-benzylidene-3-bromothiophen-2(5H)-one]",activity at 200 µM,"S. epidermidis [1]; S. epidermidis, 6 h incubation",30%
same,activity at 200 µM,S. epidermidis [1]; [10],27%
"COc1sc(/C=C2/C=CC(=O)S2)c(Br)c1Br [Thio305, (Z)-5-((3,4-dibromo-5-methoxythiophen-2-yl)methylene)thiophen-2(5H)-one]",activity at 200 µM,"S. epidermidis [1]; S. epidermidis, 6 h incubation",66%
same,activity at 200 µM,S. epidermidis [1]; [10],101%
N#CS/C=C1/C=CC(=O)S1,V. harveyi biofilm reduction,V. harveyi [2]; 25 μM,90%
same,V. harveyi planktonic reduction,V. harveyi [3]; 25 μM,50%
same,S. epidermis planktonic growth reduction,S. epidermidis [5]; concentrations from 25 μM,70%
O=C1C=C/C(=C/Oc2ccc([N+](=O)[O-])cc2)S1,Effect on S. epidermis planktonic growth,S. epidermidis [5]; in words,No effect
same,Effect on S. epidermis biofilm,S. epidermidis [6]; in words,No effect
"COc1ccc(CC2(CO)C=CC(=O)S2)s1 (stereo not drawn) [Thi401, 5-(hydroxymethyl)-5-((5-methoxythiophen-2-yl)methyl)thiophen-2(5H)-one]",Static biofilm model % Remaining,S. epidermidis [4],51%
same,activity at 200 µM,"S. epidermidis [1]; S. epidermidis, 6 h incubation",80%
same,activity at 200 µM,S. epidermidis [1]; [10],94%
"COc1ccc(C=O)s1 [Thio201, 5-methoxythiophene-2-carbaldehyde]",Static biofilm model % Remaining,S. epidermidis [4],56%
same,activity at 200 µM,"S. epidermidis [1]; S. epidermidis, 6 h incubation",81%
same,activity at 200 µM,S. epidermidis [1]; [10],101%
"O=C1C=C/C(=C(/Br)c2ccccc2)S1 [Thio112, (Z)-5-(bromo(phenyl)methylene) thiophen-2(5H)-one]",activity at 200 µM,"S. epidermidis [1]; S. epidermidis, 6 h incubation",63%
same,activity at 200 µM,S. epidermidis [1]; [10],59%
"CCO[Si](CCCNC(=O)OCC1=C/C(=C/Br)SC1=O)(OCC)OCC [Compound F, (Z)-(5-bromomethylene-2-oxo-2,5-dihydrothiopen-3-yl)methyl 3-(triethoxysilyl)propylcarbamate]",Static biofilm model % Remaining,S. epidermidis [7],45%
same,Inhibition of viable attached bacteria,marine bacteria [8],> 99%
same,Inhibition of biofilm attachment (total counts),marine bacteria [9],~80%
"O=C1C=C/C(=C/c2ccccc2)S1 [Thio109, (Z)-5-benzylidenethiophen-2(5H)-one]",activity at 200 µM,"S. epidermidis [1]; S. epidermidis, 6 h incubation",98%
same,activity at 200 µM,S. epidermidis [1]; [10],107%
"O=C1C=C/C(=C/c2cccs2)S1 [Thio301, (Z)-5-(thiophen-2-ylmethylene) thiophen-2(5H)-one]",activity at 200 µM,"S. epidermidis [1]; S. epidermidis, 6 h incubation",80%
same,activity at 200 µM,S. epidermidis [1]; [10],98%
"O=C1C=C/C(=C/c2ccc(-c3cccs3)s2)S1 [Thio306, (Z)-5-(2,2′-bithiophen-5-ylmethylene) thiophen-2(5H)-one]",Static biofilm model % Remaining,S. epidermidis [4],67%
"COc1ccc(/C=C2/C=CC(=O)S2)s1 [Thio304, (Z)-5-((5-methoxythiophen-2-yl)methylene)thiophen-2(5H)-one]",activity at 200 µM,"S. epidermidis [1]; S. epidermidis, 6 h incubation",72%
same,activity at 200 µM,S. epidermidis [1]; [10],94%
"CCO[Si](CCCNC(=O)OCc1ccccc1)(OCC)OCC [Benzyl 3-(triethoxysilyl)propylcarbamate, reference compound]",Static biofilm model % Remaining,S. epidermidis [7],100%
O=C1S/C(=C\Br)C=C1c1cccs1 [(Z)-5-(bromomethylene)-3-(thiophen-2-yl)thiophen-2(5H)-one],V. harveyi planktonic bacteria reduction,V. harveyi [3],30%
"O=C1C=C/C(=C/C(Br)Br)S1 [Thio107, (Z)-5-(2,2-dibromoethylidene) thiophen-2(5H)-one]",activity at 200 µM,"S. epidermidis [1]; S. epidermidis, 6 h incubation",77%
same,activity at 200 µM,S. epidermidis [1]; [10],93%
"O=C1C=C/C(=C/c2ccc(Br)s2)S1 [Thio302, (Z)-5-((5-bromothiophen-2-yl)methylene)thiophen-2(5H)-one]",activity at 200 µM,"S. epidermidis [1]; S. epidermidis, 6 h incubation",98%
same,activity at 200 µM,S. epidermidis [1]; [10],101%
"CC(=O)O/C=C1/C=CC(=O)S1 [Thio104, (Z)-(5-oxothiophen-2(5H)-ylidene)methyl acetate]",Static biofilm model % Remaining,S. epidermidis [4],34%
same,activity at 200 µM,S. epidermidis [1]; 6 h,106%
same,activity at 200 µM,S. epidermidis [1]; 20 h,103%
O=C1C=C/C(=C/I)S1,V. harveyi biofilm reduction,V. harveyi [2]; 5 μM,46%
same,V. harveyi biofilm reduction,V. harveyi [2]; 10 μM,80%
same,V. harveyi biofilm reduction,V. harveyi [2]; 15 μM,95%
same,S. epidermis planktonic bacterial growth reduction,S. epidermidis [5]; 50 μM,50%
same,S. epidermis planktonic bacterial growth reduction,S. epidermidis [5]; 100 μM,63%
same,S. epidermis biofilm reduction,S. epidermidis [6]; 50 μM,50%
same,S. epidermis biofilm reduction,S. epidermidis [6]; 100 μM,64%
"O=C1C=CC(=C(Br)Br)S1 [Thio106, 5-(dibromomethylene)thiophen-2(5H)-one]",activity at 200 µM,"S. epidermidis [1]; S. epidermidis, 6 h incubation",11%
same,activity at 200 µM,S. epidermidis [1]; [10],27%
"O=C1C=C/C(=C/Cl)S1 [Thio103, (Z)-5-(chloromethylene) thiophen-2(5H)-one]",Static biofilm model % Remaining,S. epidermidis [4],32%
same,activity at 200 µM,S. epidermidis [1]; 6 h,92%
same,activity at 200 µM,S. epidermidis [1]; 20 h,96%
"COc1ccc(C=C(Br)Br)s1 [Thio202, 2-(2,2-dibromovinyl)-5-methoxythiophene]",activity at 200 µM,"S. epidermidis [1]; S. epidermidis, 6 h incubation",94%
same,activity at 200 µM,S. epidermidis [1]; [10],103%
COc1ccc(C2CSC(=O)C2)s1 (stereo not drawn),Effect on V. harveyi biofilm,V. harveyi [2],No effect
same,Effect on V. harveyi planktonic growth,V. harveyi [3],No effect
